What was measured:
Assay type in all cases: binding
GRM8 = target: T1, GRM8 (Homo sapiens, UniProt O00222); assay: NanoBRET screen HiBiT-GRM8 in HEK293
T1 construct: purchased Promega (in-house HiBiT-GPCR construct library, NanoBRET)
Procedure: (§1) Each tracer candidate was screened across the entire library of HiBiT-GPCR constructs using NanoBRET as the detection modality. As depicted in Figure 4A, the specificity of interactions was evaluated through decrease in BRET due to competitive displacement of a bound tracer by excess parental compound. Each tracer was analyzed for binding to each HiBiT-GPCR fusion in the absence and in the presence of competing parental compound. Briefly, HEK293 cells were transfected with HiBiT-GPCR constructs diluted into promoterless DNA to reduce expression and maximize translocation to the cell surface. Each tracer candidate was then screened at concentrations of 1 μM and 0.1 μM across cells expressing these fusions. Cells were treated for 1.5 h with tracer either alone or in the presence of 20 μM competing parental compound (i.e., control). BRET was measured upon addition of purified LgBiT and subsequent complementation with HiBiT genetically fused to a GPCR. The specificity of interactions was assessed through a decrease in BRET signal due to competitive displacement of the bound tracer. To further gauge the robustness of these interactions, the fold response over the control (i.e., BRETtracer/BRETcontrol) was calculated. We chose a 1.5-fold response, which translates to ≥7-fold signal over noise as the minimal threshold required to score an interaction as positive. […]. Below we highlight the screening results obtained for our exemplary fluorescent tracers based on Clozapine, Amitriptyline and AZD1283.
(§2) HiBiT-GPCR DNA constructs were diluted in 10 mM Tris pH 8 to a final concentration of 0.01 μg/μL, arrayed in 96-well plates and stored at −20 °C. For transfection, HEK293 cells were suspended in Opti-MEM (without phenol red) supplemented with 2% fetal bovine serum (Seradigm) and 100 units/mL penicillin–streptomycin (Gibco) at a final concentration of 220,000 cells/mL and dispensed into white 96-well plates at 90 μL/well. Subsequent transfections and screens were carried using an Agilent Bravo Automated Liquid Handling Platform. First, the 96-well HiBiT DNA arrays were diluted 25-fold in Opti-MEM (without serum or phenol red) to a final concentration of 0.0004 μg/μL and 20 μL of the diluted DNAs were transferred into new 96-well plates. Next, promoterless carrier DNA (1 μg/μL) was diluted 25-fold (0.04 μg/μL) and then dispensed into the diluted arrays at 20 μL/well. Following brief mixing, Viafect transfection reagent (Promega) diluted 16-fold into Opti-MEM was dispensed into the plates at 40 μL/well. After mixing by pipetting, plates were incubated for 10 min on the pipetting station deck. The DNA-transfection reagent complexes were then added to plates containing cells. To facilitate the screen, 10 μL of DNA-transfection reagent complexes were added in duplicates to the top 4 and bottom 4 rows, resulting in two identical 48-well arrays per plate. Plates with transfected cells were incubated for 18–20 h at 37 °C/5% CO2. A screen of each tracer across the entire library using two different concentrations requires duplicate plates of transfected cells. Depending on the number of tracers being screened, transfections can be scaled up using the same ratios. The next day, for each tracer, four 20× screening solutions in tracer dilution buffer (Promega) were prepared: two duplicates at final concentration of 20 μM and two duplicates at a final concentration of 2 μM. A competing unmodified compound was added to one of each duplicate at a final concentration of 400 μM. The four resulting solutions were diluted 4-fold in Opti-MEM without serum or phenol red to generate 5× solutions (5 µM and 0.5 µM tracer +/− 100 μM competing compound). To screen the library, a BioTek MultiFlo FX liquid dispenser was used to dispense 22.5 µL of tracer solution to the top 4 rows and 22.5 µL tracer + competing compound solution to the 4 bottom rows. Plates were briefly mixed on an orbital shaker and incubated for 1.5 h at room temperature. […]

PTGER1 = target: T2, PTGER1 (Homo sapiens, UniProt P34995); assay: NanoBRET screen HiBiT-PTGER1 in HEK293
T2 construct: purchased Promega (in-house HiBiT-GPCR construct library, NanoBRET)
T2 sequence (P34995 1-402): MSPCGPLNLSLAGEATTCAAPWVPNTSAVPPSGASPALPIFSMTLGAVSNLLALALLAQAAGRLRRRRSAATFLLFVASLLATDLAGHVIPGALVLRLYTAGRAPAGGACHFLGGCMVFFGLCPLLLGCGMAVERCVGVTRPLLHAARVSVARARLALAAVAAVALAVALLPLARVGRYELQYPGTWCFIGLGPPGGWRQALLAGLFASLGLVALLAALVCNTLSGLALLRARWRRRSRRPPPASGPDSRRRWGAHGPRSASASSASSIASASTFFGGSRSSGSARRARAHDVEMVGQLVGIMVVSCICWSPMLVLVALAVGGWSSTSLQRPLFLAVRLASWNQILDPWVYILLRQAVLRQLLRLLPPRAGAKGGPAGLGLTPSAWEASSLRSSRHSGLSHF
Procedure: as §1, §2

FPR3 = target: T3, FPR3 (Homo sapiens, UniProt P25089); assay: NanoBRET screen HiBiT-FPR3 in HEK293
T3 construct: purchased Promega (in-house HiBiT-GPCR construct library, NanoBRET)
T3 sequence (P25089 1-353): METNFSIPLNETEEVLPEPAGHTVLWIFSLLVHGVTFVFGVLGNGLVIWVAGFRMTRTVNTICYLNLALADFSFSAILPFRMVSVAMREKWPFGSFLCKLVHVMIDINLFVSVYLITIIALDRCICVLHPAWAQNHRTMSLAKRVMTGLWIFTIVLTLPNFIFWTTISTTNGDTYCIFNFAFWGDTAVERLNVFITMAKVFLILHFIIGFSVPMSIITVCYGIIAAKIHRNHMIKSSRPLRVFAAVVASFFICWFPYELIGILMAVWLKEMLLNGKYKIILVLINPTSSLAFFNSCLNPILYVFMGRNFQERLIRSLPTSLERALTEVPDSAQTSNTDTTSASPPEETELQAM
Procedure: as §1, §2

T1 sequence (O00222 34-908): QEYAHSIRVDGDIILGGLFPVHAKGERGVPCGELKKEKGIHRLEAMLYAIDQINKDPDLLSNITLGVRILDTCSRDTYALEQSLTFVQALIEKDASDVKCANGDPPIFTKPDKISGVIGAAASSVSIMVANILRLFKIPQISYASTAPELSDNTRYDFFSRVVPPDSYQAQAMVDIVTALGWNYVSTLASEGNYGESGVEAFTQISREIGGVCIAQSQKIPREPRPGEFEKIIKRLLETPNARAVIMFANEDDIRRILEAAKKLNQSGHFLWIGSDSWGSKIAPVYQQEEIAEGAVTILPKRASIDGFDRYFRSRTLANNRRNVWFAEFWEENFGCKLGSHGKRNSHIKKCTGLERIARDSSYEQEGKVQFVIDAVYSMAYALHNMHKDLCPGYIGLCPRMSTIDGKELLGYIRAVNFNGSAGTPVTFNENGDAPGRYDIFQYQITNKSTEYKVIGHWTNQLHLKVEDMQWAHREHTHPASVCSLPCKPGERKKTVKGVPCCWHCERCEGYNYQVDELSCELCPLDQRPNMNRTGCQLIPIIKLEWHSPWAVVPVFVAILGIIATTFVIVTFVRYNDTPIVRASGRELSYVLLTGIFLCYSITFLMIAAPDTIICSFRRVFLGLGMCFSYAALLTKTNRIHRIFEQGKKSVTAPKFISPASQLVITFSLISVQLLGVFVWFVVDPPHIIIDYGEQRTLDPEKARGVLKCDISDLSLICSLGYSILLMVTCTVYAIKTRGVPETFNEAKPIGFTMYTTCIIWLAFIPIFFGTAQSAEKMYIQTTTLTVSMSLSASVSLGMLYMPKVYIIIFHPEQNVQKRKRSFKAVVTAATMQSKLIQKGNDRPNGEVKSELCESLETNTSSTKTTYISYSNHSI

Structure (SMILES): O=C(CCc1ccc2n1[B-](F)(F)[N+]1=C(c3ccc[nH]3)C=CC1=C2)NCc1ccc(C(=O)NCCOCCC(=O)N[C@@H]2CC[C@@]3(O)[C@H]4Cc5ccc(O)c6c5[C@@]3(CCN4CC3CC3)[C@H]2O6)cc1 [Naltrexone-3-NB590]
- NanoBRET Fold Response (GRM8; GRM8, tracer 0.1μM): 1.07
- NanoBRET Fold Response (GRM8; GRM8, tracer 1μM): 0.93
- NanoBRET Fold Response (PTGER1; PTGER1, tracer 0.1μM): 1.01
- NanoBRET Fold Response (PTGER1; PTGER1, tracer 1μM): 1.02
- NanoBRET Fold Response (FPR3; FPR3, tracer 0.1μM): 0.82
- NanoBRET Fold Response (FPR3; FPR3, tracer 1μM): 0.92

Structure (SMILES): CN1CCN(C2=Nc3cc(Cl)ccc3N(CC(=O)NCCOCCOCCOCCOCCNC(=O)CCc3ccc4n3[B-](F)(F)[N+]3=C(c5ccc[nH]5)C=CC3=C4)c3ccccc32)CC1 [Clozapine-c-2-NB590]
- NanoBRET Fold Response (GRM8; GRM8, 0.1μM tracer): 0.97
- NanoBRET Fold Response (GRM8; GRM8, 1μM tracer): 1.07
- NanoBRET Fold Response (PTGER1; PTGER1, 0.1μM tracer): 1.00
- NanoBRET Fold Response (PTGER1; PTGER1, 1μM tracer): 0.92
- NanoBRET Fold Response (FPR3; FPR3, 0.1μM tracer): 1.08
- NanoBRET Fold Response (FPR3; FPR3, 1μM tracer): 1.01

Structure (SMILES): O=C(CCOCCOCCOCCOCCNC(=O)CCc1ccc2n1[B-](F)(F)[N+]1=C(c3ccc[nH]3)C=CC1=C2)NCCCN1CCN(C2=Nc3cc(Cl)ccc3Nc3ccccc32)CC1 [Clozapine-a-2-NB590]
- NanoBRET Fold Response (GRM8; GRM8, 0.1μM tracer): 1.01
- NanoBRET Fold Response (GRM8; GRM8, 1μM tracer): 1.00
- NanoBRET Fold Response (PTGER1; PTGER1, 0.1μM tracer): 1.03
- NanoBRET Fold Response (PTGER1; PTGER1, 1μM tracer): 1.02
- NanoBRET Fold Response (FPR3; FPR3, 0.1μM tracer): 0.92
- NanoBRET Fold Response (FPR3; FPR3, 1μM tracer): 1.30

Structure (SMILES): CCOC(=O)c1cc(C#N)c(N2CCC(C(=O)NS(=O)(=O)Cc3ccccc3/C=C/C(=O)NCCNC(=O)CCc3ccc4n3[B-](F)(F)[N+]3=C(c5ccc[nH]5)C=CC3=C4)CC2)nc1C [AZD1283-1-NB590]
- NanoBRET Fold Response (GRM8; GRM8, 0.1μM): 0.99
- NanoBRET Fold Response (GRM8; GRM8, 1μM): 1.01
- NanoBRET Fold Response (PTGER1; PTGER1, 0.1μM): 1.17
- NanoBRET Fold Response (PTGER1; PTGER1, 1μM): 1.14
- NanoBRET Fold Response (FPR3; FPR3, 0.1μM): 1.08
- NanoBRET Fold Response (FPR3; FPR3, 1μM): 1.06

Structure (SMILES): COc1ccc2[nH]c(-c3ccc(CNC(=O)CCOCCOCCOCCOCCNC(=O)CCc4ccc5n4[B-](F)(F)[N+]4=C(c6ccc[nH]6)C=CC4=C5)cc3)c(CCNC(C)=O)c2n1 [AzomelatoninICO9-2-NB590]
- NanoBRET Fold Response (GRM8; 0.1μM tracer): 0.98
- NanoBRET Fold Response (GRM8; 1μM tracer): 0.98
- NanoBRET Fold Response (PTGER1; 0.1μM tracer): 0.77
- NanoBRET Fold Response (PTGER1; 1μM tracer): 0.95
- NanoBRET Fold Response (FPR3; 0.1μM tracer): 1.46
- NanoBRET Fold Response (FPR3; 1μM tracer): 1.02

Structure (SMILES): CCCn1c(=O)c2[nH]c(-c3ccc(OCC(=O)NCCNC(=O)CCOCCNC(=O)c4ccc(CNC(=O)CCc5ccc6n5[B-](F)(F)[N+]5=C(c7ccc[nH]7)C=CC5=C6)cc4)cc3)nc2n(CCC)c1=O [XAC-3-NB590]
- NanoBRET Fold Response (GRM8; GRM8, tracer 0.1μM): 0.99
- NanoBRET Fold Response (GRM8; GRM8, tracer 1μM): 1.04
- NanoBRET Fold Response (PTGER1; PTGER1, tracer 0.1μM): 1.06
- NanoBRET Fold Response (PTGER1; PTGER1, tracer 1μM): 1.16
- NanoBRET Fold Response (FPR3; FPR3, tracer 0.1μM): 0.78
- NanoBRET Fold Response (FPR3; FPR3, tracer 1μM): 1.04

Structure (SMILES): COc1ccccc1N1CCN(CCCCN2C(=O)c3ccc(CNC(=O)CCOCCNC(=O)c4ccc(CNC(=O)CCc5ccc6n5[B-](F)(F)[N+]5=C(c7ccc[nH]7)C=CC5=C6)cc4)cc3C2=O)CC1 [NAN-190-3-NB590]
- NanoBRET Fold Response (GRM8; GRM8, tracer 0.1μM): 1.21
- NanoBRET Fold Response (GRM8; GRM8, tracer 1μM): 0.96
- NanoBRET Fold Response (PTGER1; PTGER1, tracer 0.1μM): 0.89
- NanoBRET Fold Response (PTGER1; PTGER1, tracer 1μM): 1.11
- NanoBRET Fold Response (FPR3; FPR3, tracer 0.1μM): 1.28
- NanoBRET Fold Response (FPR3; FPR3, tracer 1μM): 0.99

Structure (SMILES): O=C(CCc1ccc2n1[B-](F)(F)[N+]1=C(c3ccc[nH]3)C=CC1=C2)NCc1ccc(C(=O)NCCOCCOCCNCC(O)COc2cccc3ccccc23)cc1 (stereo not shown) [Propranolol-3-NB590]
- NanoBRET Fold Response (GRM8; GRM8, 0.1μM): 0.99
- NanoBRET Fold Response (GRM8; GRM8, 1μM): 1.00
- NanoBRET Fold Response (PTGER1; PTGER1, 0.1μM): 1.07
- NanoBRET Fold Response (PTGER1; PTGER1, 1μM): 1.06
- NanoBRET Fold Response (FPR3; FPR3, 0.1μM): 1.03
- NanoBRET Fold Response (FPR3; FPR3, 1μM): 1.03

Structure (SMILES): COc1ccc2c(n1)c(CCNC(C)=O)cn2CCNC(=O)CCc1ccc2n1[B-](F)(F)[N+]1=C(c3ccc[nH]3)C=CC1=C2 [Azamelatonin-1-NB590]
- NanoBRET Fold Response (GRM8; 0.1μM tracer): 0.96
- NanoBRET Fold Response (GRM8; 1μM tracer): 0.95
- NanoBRET Fold Response (PTGER1; 0.1μM tracer): 1.20
- NanoBRET Fold Response (PTGER1; 1μM tracer): 0.95
- NanoBRET Fold Response (FPR3; 0.1μM tracer): 0.85
- NanoBRET Fold Response (FPR3; 1μM tracer): 1.06

Structure (SMILES): O=C(CCOCCOCCOCCOCCNC(=O)CCc1ccc2n1[B-](F)(F)[N+]1=C(c3ccc[nH]3)C=CC1=C2)NCCCN1CCN(C2=Nc3ccccc3Oc3ccc(Cl)cc32)CC1 [Loxapine-a-2-NB590]
- NanoBRET Fold Response (GRM8; GRM8, tracer 0.1μM): 1.01
- NanoBRET Fold Response (GRM8; GRM8, tracer 1μM): 1.07
- NanoBRET Fold Response (PTGER1; PTGER1, tracer 0.1μM): 1.09
- NanoBRET Fold Response (PTGER1; PTGER1, tracer 1μM): 1.08
- NanoBRET Fold Response (FPR3; FPR3, tracer 0.1μM): 1.02
- NanoBRET Fold Response (FPR3; FPR3, tracer 1μM): 1.07

Structure (SMILES): COc1ccccc1N1CCN(CCCCN2C(=O)c3ccc(CNC(=O)CCOCCOCCOCCOCCNC(=O)CCc4ccc5n4[B-](F)(F)[N+]4=C(c6ccc[nH]6)C=CC4=C5)cc3C2=O)CC1 [NAN-190-2-NB590]
- NanoBRET Fold Response (GRM8; GRM8, tracer 0.1μM): 1.02
- NanoBRET Fold Response (PTGER1; PTGER1, tracer 0.1μM): 0.93
- NanoBRET Fold Response (PTGER1; PTGER1, tracer 1μM): 1.04
- NanoBRET Fold Response (FPR3; FPR3, tracer 0.1μM): 1.00
- NanoBRET Fold Response (FPR3; FPR3, tracer 1μM): 0.74

Structure (SMILES): CN(C)CCC=C1c2ccccc2CCc2ccc(C(=O)NCCNC(=O)CCOCCOCCOCCOCCNC(=O)CCc3ccc4n3[B-](F)(F)[N+]3=C(c5ccc[nH]5)C=CC3=C4)cc21 [Amitriptyline-a-2-NB590]
- NanoBRET Fold Response (FPR3; tracer at 0.1μM): 0.96
- NanoBRET Fold Response (FPR3; tracer at 1μM): 1.07

Source: article PMC8151276, “An Integrated Approach toward NanoBRET Tracers for Analysis of GPCR Ligand Engagement” (Molecules, 2021)
